Data reported in patent publication US11058680B2, “Combinations of opioid/TLR4 antagonists and acetaminophen for use in the treatment of emotional pain and insomnia” (Allodynic Threapeutics, LLC, priority 2016, dated 2021).

Experiments:
[1] = test system: patient with chronic low back pain, tendinitis and fear from a near airplane crash; assay: Example 5 case study; format: in vivo, human; conditions: acetaminophen and ibuprofen prior to study; naltrexone 2.25 mg and acetaminophen 325 mg Q.I.D
[2] = test system: patient with lower back and leg pain and emotional pain due to separation from a child; assay: Example 12 case study, patient diary; conditions: for API, average pain intensity (0-10 NRS) / Insomnia (0-10 NRS) / PRSI, Pain Related Sleep Interference (0-10 NRS) / WEP, Worst Emotional Pain (0-10 NRS) / WPI, Worst Pain Intensity (0-10 NRS): Ibuprofen 800 mg T.I.D. PRN 2006-2010
[3] = test system: patient with emotional pain due to adjustment disorder, grieving passing of a pet; assay: Example 2 case study, emotional pain diary on 4-point scale (0=none, 1=mild, 2=moderate, 3=severe); format: in vivo, human; conditions: xanax before study treatment
Excerpt: The patient experienced a stressful life event (bereavement) that interfered with social functioning. […] The emotional pain intensity was rated on a 4-point unipolar scale (0=none, 1=mild, 2=moderate, 3=severe).

[4] = test system: migraine; conditions: literature, Brandes et al. JAMA 2007; cited from earlier work
[5] = test system: patients with low back pain (LBP); assay: Naltrexone/acetaminophen open-label pilot study for low back pain, daily patient diary (WPI, API, WEP, PRSI, insomnia, PGIC, energy, activity); format: in vivo, human
Method: Twenty patients of whom 16 had chronic low back pain (CLBP), three had acute LBP and one had pain due to Temporomandibular disorders (TMD) were evaluated in an open label pilot study. […] The patient reported diary questionnaire included the following questions.
Question No. 1: Choose one number that best describes the “Worst Pain” in your lower back in the last 24 hours (WPI) [measured on an 11-point NRS (0=no pain, 10=worst pain possible)].
Question No. 2: Choose one number that best describes the “Average Pain” in your lower back in the last 24 hours (API) [measured on an 11-point NRS (0=no pain, 10=worst pain possible)].
Question No. 3: Choose one number that best describes the “Worst Emotional Pain” you experienced in the last 24 hours. (E.g., “Today, I experienced hurt feelings, and/or anger, and/or fear, and/or sadness”).
Question No. 4: Choose one number that best describes how pain has interfered with your sleep in the last 24 hours [Pain Related Sleep Interference (PRSI) measured on an 11-point NRS (0=no interference, 10=complete interference)].
Question No. 5: Have you experienced difficulty sleeping or falling asleep (insomnia) in the last 24 hours [measured on an 11-point NRS (0=no insomnia, 10=worst insomnia possible)].

[6] = test system: patient with emotional pain due to football team losses and low back pain; assay: Example 4 case study, patient diary; format: in vivo, human
[7] = test system: patient with emotional pain due to severe pain caused by acute spinal disk herniation; assay: Example 6 case study, patient diary; format: in vivo, human
Method: They scheduled an elective inguinal hernia surgery during a time that they had already planned time off from work for their spouse and themself. […] The day after the incident, they took acetaminophen 3000 mg. […] They were in the process of purchasing a home, which they found stressful.

[8] = test system: patient with lower back pain and emotional pain due to conflict at work; assay: Example 7 case study; format: in vivo, human; conditions: acetaminophen 4 times, one day, naltrexone 2.25 mg and Tylenol 325 mg twice daily
[9] = test system: patient with lower back pain and emotional pain due to anger with poorly-performing employees; assay: Example 10 case study, patient diary; format: in vivo, human
Excerpt: A person building contractor with a history of lower back pain reported emotional pain due to frustration with their three employees' poor job performance. […] Treatment with naltrexone and acetaminophen eliminated their physical, as well as their emotional pain, which happened overnight.

[10] = test system: patient with emotional pain due to relationship break-up; assay: Example 11 case study, patient diary; format: in vivo, human; conditions: APAP 325 mg Q.I.D., Sep. 25-Oct. 2, 2015
[11] = Naltrexone 2.25 mg Q.I.D./Clonidine 0.025 mg Q.I.D. 2010-2015, APAP 325 mg Q.I.D. Jun. 29-Jul. 6, 2015, Naltrexone 2.5 mg Q.I.D. to Jul. 8, 2015, Naltrexone 2.25 mg/APAP 325 mg Q.I.D. Jul. 9-Oct. 4, 2015
[12] = on treatment, last day, APAP 325 mg alone (N = 8, avg 9.83 days), NTX/APAP 2.25/325 mg (n = 18, avg 25.4 days)
[13] = treatment period, APAP 325 mg alone, NTX/APAP 2.25/325 mg
[14] = APAP 325 mg Q.I.D. Jun. 29-Jul. 8, 2015, NTX 2.25 mg/APAP 325 mg Q.I.D. Jul. 9-Aug. 9, 2015
[15] = APAP 325 mg Q.I.D., NTX 2.25 mg/APAP 325 mg Q.I.D.
[16] = APAP 1000 mg TID, Aug. 18-19, 2015
[17] = acetaminophen 3000 mg, the day after the incident
[18] = APAP 325 mg Q.I.D., Sep. 29-Oct. 1, 2015
[19] = acetaminophen for three days, naltrexone and acetaminophen, overnight

CC(C)Cc1ccc(C(C)C(=O)O)cc1 (stereo not shown) [Ibuprofen]
relief of physical pain (low back, foot) [1]: without significant relief | API, average pain intensity (0-10 NRS) [2, 11]: 5.5 | Insomnia (0-10 NRS) [2, 11]: 9 | PRSI, Pain Related Sleep Interference (0-10 NRS) [2, 11]: 7 | WEP, Worst Emotional Pain (0-10 NRS) [2, 11]: 7 | WPI, Worst Pain Intensity (0-10 NRS) [2, 11]: 6

Cc1nnc2n1-c1ccc(Cl)cc1C(c1ccccc1)=NC2 [xanax]
relief of emotional pain (patient report) [3]: did not help

CNS(=O)(=O)Cc1ccc2[nH]cc(CCN(C)C)c2c1 [sumatriptan]
2-hour headache (migraine) pain-free [4]: 25%

CC(=O)Nc1ccc(O)cc1 [acetaminophen]
API Avg., average pain intensity (0-10 NRS) [5, 12]: 4.25 | Activity Avg., change in activity level (1-7 Likert) [5, 12]: 4.67 | Energy Avg., change in energy level (1-7 Likert) [5, 12]: 4.67 | Insomnia Avg. (0-10 NRS) [5, 12]: 4.33 | PGIC Avg., Patient Global Impression of Change (1-7 Likert, 7 = very much improved) [5, 12]: 5.00 | PRSI Avg., Pain Related Sleep Interference (0-10 NRS) [5, 12]: 4.00 | WEP Avg., Worst Emotional Pain (0-10 NRS) [5, 12]: 5.17 | WPI Avg., Worst Pain Intensity (0-10 NRS) [5, 12]: 5.25 | Mean Improvement from Baseline, API (0-10 NRS) [5, 13]: 1.28 | Mean Improvement from Baseline, Insomnia (0-10 NRS) [5, 13]: −0.23 | Mean Improvement from Baseline, PRSI (0-10 NRS) [5, 13]: 0.90 | Mean Improvement from Baseline, WEP (0-10 NRS) [5, 13]: 0.14 | Mean Improvement from Baseline, WPI (0-10 NRS) [5, 13]: 1.43 | API, average pain intensity (0-10 NRS) [6, 14]: 3 | Insomnia (0-10 NRS) [6, 14]: 0 | PRSI, Pain Related Sleep Interference (0-10 NRS) [6, 14]: 0 | WEP, Worst Emotional Pain (0-10 NRS) [6, 14]: 2 | WPI, Worst Pain Intensity (0-10 NRS) [6, 14]: 3 | Improvement from baseline, API [6, 15]: 25% | Improvement from baseline, WEP [6, 15]: 33% | Improvement from baseline, WPI [6, 15]: 40% | ability to handle emotional disturbance due to team losses ([6]; Tylenol 325 mg, 4 times daily for 10 days): did not report improvement | elimination/reduction of emotional and physical pain symptoms ([6]; naltrexone and acetaminophen for one month, acetaminophen alone): 25%-40% | relief of physical pain (low back, foot) [1]: without significant relief | API, average pain intensity (0-10 NRS) [7, 16]: 8 | Insomnia (0-10 NRS) [7, 16]: 9 | PGIC (1-7 Likert) [7, 16]: 5 | PRSI, Pain Related Sleep Interference (0-10 NRS) [7, 16]: 9 | WEP, Worst Emotional Pain (0-10 NRS) [7, 16]: 6 | WPI, Worst Pain Intensity (0-10 NRS) [7, 16]: 9 | emotional pain (NRS) [7, 17]: 6 /10 | insomnia improved by [7, 17]: 1 point | pain level improved by [7, 17]: 1 point | emotional pain (patient report) [8]: did not notice a change | back pain (patient report) ([8]; within three days): slight improvement | API, average pain intensity (0-10 NRS) [9, 18]: 2.5 | Insomnia (0-10 NRS) [9, 18]: 2 | PGIC (1-7 Likert) [9, 18]: 5 | PRSI, Pain Related Sleep Interference (0-10 NRS) [9, 18]: 4 | WEP, Worst Emotional Pain (0-10 NRS) [9, 18]: 3 | WPI, Worst Pain Intensity (0-10 NRS) [9, 18]: 4 | back/physical pain (patient report) [9, 19]: improved their back pain | emotional pain (patient report) [9, 19]: remained unchanged | API, average pain intensity (0-10 NRS) [10]: 5 | Insomnia (0-10 NRS) [10]: 10 | PGIC (1-7 Likert) [10]: 5 | PRSI, Pain Related Sleep Interference (0-10 NRS) [10]: 3.5 | WEP, Worst Emotional Pain (0-10 NRS) [10]: 10 | WPI, Worst Pain Intensity (0-10 NRS) [10]: 7 | API, average pain intensity (0-10 NRS) [2, 11]: 3.5 | Insomnia (0-10 NRS) [2, 11]: 5.5 | PRSI, Pain Related Sleep Interference (0-10 NRS) [2, 11]: 4.5 | WEP, Worst Emotional Pain (0-10 NRS) [2, 11]: 5.0 | WPI, Worst Pain Intensity (0-10 NRS) [2, 11]: 4.5 | PGIC (1-7 Likert) [2, 11]: 5 | emotional pain due to separation from child (patient report) ([2]; naltrexone/clonidine, acetaminophen 325 mg four times daily 5 days, naltrexone alone 12 days, naltrexone 2.25 mg and acetaminophen 325 mg four times daily almost three months): same level of emotional pain
